Reference: article PMC10998594, “Structural and mechanistic basis of the central energy-converting methyltransferase complex of methanogenesis” (Proceedings of the National Academy of Sciences of the …, 2024)

Biological target: T1, MtrABCDEFG; Mtr(ABCDEFG)3; N5-methyl-tetrahydromethanopterin: coenzyme M methyltransferase core complex (Methanothermobacter marburgensis, UniProt P80183+P80185+P80186)
T1 construct: gene mtrE; native purification from M. marburgensis membranes (DDM/LMNG); trimer of MtrABCDEFG protomers, 430 kDa; MtrH not visible; soluble MtrA domain disordered, only MtrA 178-238 seen; printed lengths MtrB 100, MtrC 267, MtrD 233, MtrE 295, MtrF 68, MtrG 86; with Tetrahydromethanopterin S-methyltransferase subunit A; Tetrahydromethanopterin S-methyltransferase subunit B; Tetrahydromethanopterin S-methyltransferase subunit F; Tetrahydromethanopterin S-methyltransferase subunit G
Assay: cryo-EM structure, […] A
Format: binding
Details: 2 mM CoM, pH 7, 80 mM NaCl; site at wall of MtrCDE cavity (MtrE R113, N38; MtrC N188); two partially occupied conformations; putative assignment

T1 sequence (P80183 whole entry, looked up, the tested form may be a part): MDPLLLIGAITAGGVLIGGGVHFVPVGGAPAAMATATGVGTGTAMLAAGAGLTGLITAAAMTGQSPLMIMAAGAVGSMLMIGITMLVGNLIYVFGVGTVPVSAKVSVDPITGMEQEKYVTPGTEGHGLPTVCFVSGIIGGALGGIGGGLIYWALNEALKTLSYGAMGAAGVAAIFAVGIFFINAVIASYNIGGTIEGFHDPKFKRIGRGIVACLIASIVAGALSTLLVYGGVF
T1 sequence (P80185 whole entry, looked up, the tested form may be a part): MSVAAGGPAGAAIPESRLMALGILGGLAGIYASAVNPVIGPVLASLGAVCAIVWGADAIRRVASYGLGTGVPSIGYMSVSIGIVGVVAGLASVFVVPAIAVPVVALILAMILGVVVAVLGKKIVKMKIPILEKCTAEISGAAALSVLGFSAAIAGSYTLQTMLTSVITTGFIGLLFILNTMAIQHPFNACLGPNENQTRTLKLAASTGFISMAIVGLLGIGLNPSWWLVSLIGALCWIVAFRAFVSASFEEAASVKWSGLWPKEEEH
T1 sequence (P80186 whole entry, looked up, the tested form may be a part): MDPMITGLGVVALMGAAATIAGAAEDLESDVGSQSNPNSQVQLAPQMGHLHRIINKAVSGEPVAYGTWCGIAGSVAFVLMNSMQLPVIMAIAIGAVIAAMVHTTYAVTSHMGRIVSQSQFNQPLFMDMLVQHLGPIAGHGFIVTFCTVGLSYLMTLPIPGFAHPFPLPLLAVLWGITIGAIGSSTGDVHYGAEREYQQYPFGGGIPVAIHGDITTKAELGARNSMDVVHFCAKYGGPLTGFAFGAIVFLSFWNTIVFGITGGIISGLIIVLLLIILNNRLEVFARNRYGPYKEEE

O=S(=O)(O)CCS [CoM]
cryo-EM structure, 2.39 A: revealed the CoM binding site at the wall of the MtrCDE cavity
